Assays:
Assay in all cases: relative viability (nuclei count vs DMSO), 5 days (fraction); higher = more cells survive
Tozasertib + Pictilisib = compound: Cc1cc(Nc2cc(N3CCN(C)CC3)nc(Sc3ccc(NC(=O)C4CC4)cc3)n2)n[nH]1 [Tozasertib] + CS(=O)(=O)N1CCN(Cc2cc3nc(-c4cccc5[nH]ncc45)nc(N4CCOCC4)c3s2)CC1 [Pictilisib] (partner 1 µM)
Method in brief: (§1)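 One day after seeding in 1536-well plates, lung cancer cell lines were dosed by pin tool. Dosing was either single-drug or a fixed anchor-drug dose plus five library-drug doses (not always all listed) in √10 steps. After 5 days, nuclei were stained in one fix-and-stain step and counted on 4× images, and relative viability is the nuclei count of treated wells over that of vehicle wells, given as the median of duplicate plates.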

Tozasertib + Luminespib = compound: Cc1cc(Nc2cc(N3CCN(C)CC3)nc(Sc3ccc(NC(=O)C4CC4)cc3)n2)n[nH]1 [Tozasertib] + CCNC(=O)c1noc(-c2cc(C(C)C)c(O)cc2O)c1-c1ccc(CN2CCOCC2)cc1 [Luminespib] (partner 0.01 µM)
Method in brief: as §1

Tozasertib + Alpelisib = compound: Cc1cc(Nc2cc(N3CCN(C)CC3)nc(Sc3ccc(NC(=O)C4CC4)cc3)n2)n[nH]1 [Tozasertib] + Cc1nc(NC(=O)N2CCC[C@H]2C(N)=O)sc1-c1ccnc(C(C)(C)C(F)(F)F)c1 [Alpelisib] (partner 2 µM)
Method in brief: as §1

Tozasertib + Olaparib = compound: Cc1cc(Nc2cc(N3CCN(C)CC3)nc(Sc3ccc(NC(=O)C4CC4)cc3)n2)n[nH]1 [Tozasertib] + O=C(c1cc(Cc2n[nH]c(=O)c3ccccc23)ccc1F)N1CCN(C(=O)C2CC2)CC1 [Olaparib] (partner 8 µM)
Method in brief: as §1

| Cell Line | relative viability (Tozasertib + Pictilisib; first compound 0.004 µM) | relative viability (Tozasertib + Pictilisib; first compound 0.01265 µM) | relative viability (Tozasertib + Pictilisib; first compound 0.04 µM) | relative viability (Tozasertib + Pictilisib; first compound 0.1265 µM) | relative viability (Tozasertib + Luminespib; first compound 0.004 µM) | relative viability (Tozasertib + Luminespib; first compound 0.01265 µM) | relative viability (Tozasertib + Luminespib; first compound 0.04 µM) | relative viability (Tozasertib + Luminespib; first compound 0.1265 µM) | relative viability (Tozasertib + Alpelisib; first compound 0.004 µM) | relative viability (Tozasertib + Alpelisib; first compound 0.01265 µM) | relative viability (Tozasertib + Alpelisib; first compound 0.04 µM) | relative viability (Tozasertib + Alpelisib; first compound 0.1265 µM) | relative viability (Tozasertib + Olaparib; first compound 0.004 µM) | relative viability (Tozasertib + Olaparib; first compound 0.01265 µM) | relative viability (Tozasertib + Olaparib; first compound 0.04 µM) | relative viability (Tozasertib + Olaparib; first compound 0.1265 µM) |
| --- | --- | --- | --- | --- | --- | --- | --- | --- | --- | --- | --- | --- | --- | --- | --- | --- |
| NCI-H838 | 0.453 | 0.425 | 0.427 | 0.202 | 0.292 | 0.304 | 0.344 | 0.295 | 1.15 | 0.942 | 1.12 | 1.03 | 0.814 | 0.752 | 0.815 | 0.386 |
| NCI-H1355 | 0.426 | 0.461 | 0.52 | 0.272 | 0.643 | 0.738 | 0.689 | 0.58 | 0.851 | 0.804 | 0.96 | 0.78 | 0.748 | 0.694 | 0.689 | 0.545 |
| NCI-H1395 | 0.657 | 0.528 | 0.604 | 0.469 | 0.595 | 0.815 | 0.604 | 0.649 | 1.15 | 1.04 | 0.914 | 0.753 | 0.435 | 0.492 | 0.407 | 0.414 |
| NCI-H1437 | 0.479 | 0.385 | 0.448 | 0.318 | 1.19 | 1.1 | 1.09 | 1.03 | – | 0.866 | 1.01 | 0.92 | 0.66 | 0.58 | 0.595 | 0.541 |
| NCI-H1651 | 0.655 | 0.62 | 0.634 | 0.377 | 0.818 | 0.918 | 1 | 0.909 | 0.922 | 1.01 | 0.886 | 1.03 | 0.189 | 0.158 | 0.173 | 0.167 |
| NCI-H1666 | 0.455 | 0.412 | 0.586 | 0.305 | 0.957 | 1.03 | 0.968 | 0.859 | 1.06 | 0.976 | 0.973 | 0.632 | 0.717 | 0.727 | 0.729 | 0.705 |
| NCI-H1734 | 0.528 | 0.494 | 0.518 | 0.401 | 0.223 | 0.184 | 0.2 | 0.167 | 0.656 | 0.64 | – | 0.469 | 0.734 | 0.577 | 0.66 | 0.374 |
| NCI-H1755 | 0.422 | 0.395 | 0.444 | 0.232 | 0.259 | 0.386 | 0.322 | 0.413 | 0.518 | 0.908 | 0.948 | 0.629 | 0.854 | 0.879 | 0.822 | 0.59 |
| NCI-H1792 | 0.297 | 0.203 | 0.241 | 0.167 | 0.394 | – | 0.456 | 0.325 | 0.613 | 0.596 | 0.817 | 0.618 | 0.456 | 0.435 | 0.707 | 0.314 |
| NCI-H1793 | 0.396 | 0.357 | 0.351 | 0.261 | 0.181 | 0.198 | 0.191 | 0.18 | 0.578 | 0.699 | 0.872 | – | 0.918 | 0.778 | 0.974 | 0.533 |

From the supplement of paper PMC10307832
